Assay results: patent US12486273B2 (Hoffmann-La Roche Inc., priority 2019, dated 2025)

Tests used:
Format in all cases: cell-based
human TLR7 = human TLR7 (Homo sapiens (Human), UniProt Q9NYK1); assay: HEK293-Blue-hTLR-7 cells assay; conditions: HEK293-Blue-hTLR7 cells, R848 stimulation, 20 hrs, SEAP reporter; read-out: HEK/hTLR7 IC50
Source text: HEK293-BLUE-hTLR-7 CELLS ASSAY:
(§1) A stable HEK293-Blue-hTLR-7 cell line was purchased from InvivoGen (Cat. #: hkb-htlr7, San Diego, California, USA). These cells were originally designed for studying the stimulation of human TLR7 by monitoring the activation of NF-κB. A SEAP (secreted embryonic alkaline phosphatase) reporter gene was placed under the control of the IFN-β minimal promoter fused to five NF-κB and AP-1-binding sites. The SEAP was induced by activating NF-κB and AP-1 via stimulating HEK-Blue hTLR7 cells with TLR7 ligands. Therefore the reporter expression was declined by TLR7 antagonist under the stimulation of a ligand, such as R848 (Resiquimod), for incubation of 20 hrs. The cell culture supernatant SEAP reporter activity was determined using QUANTI-Blue™ kit (Cat. #: rep-qb1, Invivogen, San Diego, Ca, USA) at a wavelength of 640 nm, a detection medium that turns purple or blue in the presence of alkaline phosphatase.
(§2) HEK293-Blue-hTLR7 cells were incubated at a density of 250,000˜450,000 cells/mL in a volume of 170 μL in a 96-well plate in Dulbecco's Modified Eagle's medium (DMEM) containing 4.5 g/L glucose, 50 U/mL penicillin, […], […], 2 mM L-glutamine, 10% (v/v) heat-inactivated fetal bovine serum with addition of 20 μL test compound in a serial dilution in the presence of final DMSO at 1% and 10 μL of 20 μM R848 in above DMEM, perform incubation under 37° C. in a CO2 incubator for 20 hrs. Then 20 μL of the supernatant from each well was incubated with 180 μL Quanti-blue substrate solution at 37° C. for 2 hrs and the absorbance was read at 620-655 nm using a spectrophotometer. The signaling pathway that TLR7 activation leads to downstream NF-κB activation has been widely accepted, and therefore similar reporter assay was modified for evaluating TLR7 antagonist.

human TLR9 = human TLR9 (Homo sapiens (Human), UniProt Q9NR96); assay: HEK293-Blue-hTLR-9 cells assay; conditions: HEK293-Blue-hTLR9 cells, ODN2006 stimulation, 20 hrs, SEAP reporter; read-out: HEK/hTLR9 IC50
Sequence of human TLR9 (Q9NR96 26-1032): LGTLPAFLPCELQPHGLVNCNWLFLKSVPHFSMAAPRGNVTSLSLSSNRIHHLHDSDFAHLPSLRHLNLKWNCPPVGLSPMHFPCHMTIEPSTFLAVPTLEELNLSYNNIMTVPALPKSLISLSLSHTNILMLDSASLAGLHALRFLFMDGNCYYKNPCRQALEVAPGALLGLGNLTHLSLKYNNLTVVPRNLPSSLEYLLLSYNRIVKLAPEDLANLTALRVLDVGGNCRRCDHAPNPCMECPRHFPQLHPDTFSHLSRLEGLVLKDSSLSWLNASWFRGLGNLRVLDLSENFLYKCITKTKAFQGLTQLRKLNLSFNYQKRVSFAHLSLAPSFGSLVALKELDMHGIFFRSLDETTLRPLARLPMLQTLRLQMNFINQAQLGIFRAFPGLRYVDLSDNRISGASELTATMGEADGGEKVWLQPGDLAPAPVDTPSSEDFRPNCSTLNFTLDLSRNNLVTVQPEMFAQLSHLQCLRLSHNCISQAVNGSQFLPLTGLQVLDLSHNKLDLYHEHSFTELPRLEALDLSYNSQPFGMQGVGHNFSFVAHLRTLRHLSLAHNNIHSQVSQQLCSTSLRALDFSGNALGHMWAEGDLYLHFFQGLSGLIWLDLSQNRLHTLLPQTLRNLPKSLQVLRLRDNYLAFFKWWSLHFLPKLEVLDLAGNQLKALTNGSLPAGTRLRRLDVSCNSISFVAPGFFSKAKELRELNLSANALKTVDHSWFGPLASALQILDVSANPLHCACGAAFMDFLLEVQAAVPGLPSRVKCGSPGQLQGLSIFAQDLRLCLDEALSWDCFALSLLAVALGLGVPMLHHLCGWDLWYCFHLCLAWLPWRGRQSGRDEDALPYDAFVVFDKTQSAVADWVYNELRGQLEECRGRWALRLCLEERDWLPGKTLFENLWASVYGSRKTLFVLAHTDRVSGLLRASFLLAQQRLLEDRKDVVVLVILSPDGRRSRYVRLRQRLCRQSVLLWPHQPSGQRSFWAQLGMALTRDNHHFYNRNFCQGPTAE
Source text: HEK293-Blue-hTLR-9 Cells Assay:
A stable HEK293-Blue-hTLR-9 cell line was purchased from InvivoGen (Cat. #: hkb-htlr9, San Diego, California, USA). These cells were originally designed for studying the stimulation of human TLR9 by monitoring the activation of NF-κB. A SEAP (secreted embryonic alkaline phosphatase) reporter gene was placed under the control of the IFN-β minimal promoter fused to five NF-κB and AP-1-binding sites. The SEAP was induced by activating NF-κB and AP-via stimulating HEK-Blue hTLR9 cells with TLR9 ligands. Therefore the reporter expression was declined by TLR9 antagonist under the stimulation of a ligand, such as ODN2006 (Cat. #: tlrl-2006-1, Invivogen, San Diego, California, USA), for incubation of 20 hrs. The cell culture supernatant SEAP reporter activity was determined using QUANTI-Blue™ kit (Cat. #: rep-qb1, Invivogen, San Diego, California, USA) at a wavelength of 640 nm, a detection medium that turns purple or blue in the presence of alkaline phosphatase.
as §2, with “HEK293-Blue-hTLR9 cells” for “HEK293-Blue-hTLR7 cells”, “μM ODN2006” for “μM R848”, “2 h” for “2 hrs”, “that TLR9” for “that TLR7”, “evaluating TLR9” for “evaluating TLR7”

human TLR8 = human TLR8 (Homo sapiens (Human), UniProt Q9NR97); assay: HEK293-Blue-hTLR-8 cells assay; conditions: HEK293-Blue-hTLR8 cells, R848 stimulation, 20 hrs, SEAP reporter; read-out: HEK/hTLR8 IC50
Sequence of human TLR8 (Q9NR97 27-1041): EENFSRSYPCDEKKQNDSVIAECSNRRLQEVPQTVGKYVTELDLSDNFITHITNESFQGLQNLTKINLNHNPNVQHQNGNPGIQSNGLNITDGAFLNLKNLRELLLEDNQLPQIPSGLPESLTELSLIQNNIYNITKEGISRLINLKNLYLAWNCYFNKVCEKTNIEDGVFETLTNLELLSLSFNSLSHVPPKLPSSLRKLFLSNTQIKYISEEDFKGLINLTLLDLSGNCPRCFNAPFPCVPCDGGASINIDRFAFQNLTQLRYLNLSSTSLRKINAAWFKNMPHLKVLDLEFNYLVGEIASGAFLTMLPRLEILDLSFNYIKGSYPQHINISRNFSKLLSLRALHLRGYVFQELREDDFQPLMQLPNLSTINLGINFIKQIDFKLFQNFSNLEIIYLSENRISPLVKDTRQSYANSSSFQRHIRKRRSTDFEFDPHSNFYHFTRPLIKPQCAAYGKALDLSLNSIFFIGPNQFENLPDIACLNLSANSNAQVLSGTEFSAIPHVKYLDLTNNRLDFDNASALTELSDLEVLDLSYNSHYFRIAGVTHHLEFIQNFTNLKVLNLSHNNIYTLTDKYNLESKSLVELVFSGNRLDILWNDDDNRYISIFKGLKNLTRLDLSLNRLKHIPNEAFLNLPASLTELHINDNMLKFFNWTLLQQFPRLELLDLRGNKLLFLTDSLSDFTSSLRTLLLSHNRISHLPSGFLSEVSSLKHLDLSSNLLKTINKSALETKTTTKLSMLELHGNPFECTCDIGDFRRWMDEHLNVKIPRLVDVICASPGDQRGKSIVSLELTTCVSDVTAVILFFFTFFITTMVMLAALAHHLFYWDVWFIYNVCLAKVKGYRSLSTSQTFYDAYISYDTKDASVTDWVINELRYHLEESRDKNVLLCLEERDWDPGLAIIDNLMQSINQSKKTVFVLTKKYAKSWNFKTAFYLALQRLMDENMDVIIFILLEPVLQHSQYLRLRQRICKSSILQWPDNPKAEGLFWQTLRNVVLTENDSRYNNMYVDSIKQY
Source text: HEK293-Blue-hTLR-8 Cells Assay:
as §1, with “HEK293-Blue-hTLR-8” for “HEK293-Blue-hTLR-7”, “hkb-htlr8,” for “hkb-htlr7,”, “TLR8” for “TLR7”, “hTLR8” for “hTLR7”, “R848,” for “R848 (Resiquimod),”, “rep-Qb1,” for “rep-qb1,”
HEK293-Blue-hTLR8 cells were incubated at a density of 250,000-450,000 cells/mL in a volume of 170 μL in a 96-well plate in Dulbecco's Modified Eagle's medium (DMEM) containing 4.5 g/L glucose, 50 U/mL penicillin, […], […], 2 mM L-glutamine, 10% (v/v) heat-inactivated fetal bovine serum with addition of 20 μL test compound in a serial dilution in the presence of final DMSO at 1% and 10 μL of 60 μM R848 in above DMEM, perform incubation under 37° C. in a CO2 incubator for 20 hrs. Then 20 μL of the supernatant from each well was incubated with 180 μL Quanti-blue substrate solution at 37° C. for […] and the absorbance was read at 620˜655 nm using a spectrophotometer. The signaling pathway that TLR8 activation leads to downstream NF-κB activation has been widely accepted, and therefore similar reporter assay was modified for evaluating TLR8 antagonist.

Sequence of human TLR7 (Q9NYK1 27-1049): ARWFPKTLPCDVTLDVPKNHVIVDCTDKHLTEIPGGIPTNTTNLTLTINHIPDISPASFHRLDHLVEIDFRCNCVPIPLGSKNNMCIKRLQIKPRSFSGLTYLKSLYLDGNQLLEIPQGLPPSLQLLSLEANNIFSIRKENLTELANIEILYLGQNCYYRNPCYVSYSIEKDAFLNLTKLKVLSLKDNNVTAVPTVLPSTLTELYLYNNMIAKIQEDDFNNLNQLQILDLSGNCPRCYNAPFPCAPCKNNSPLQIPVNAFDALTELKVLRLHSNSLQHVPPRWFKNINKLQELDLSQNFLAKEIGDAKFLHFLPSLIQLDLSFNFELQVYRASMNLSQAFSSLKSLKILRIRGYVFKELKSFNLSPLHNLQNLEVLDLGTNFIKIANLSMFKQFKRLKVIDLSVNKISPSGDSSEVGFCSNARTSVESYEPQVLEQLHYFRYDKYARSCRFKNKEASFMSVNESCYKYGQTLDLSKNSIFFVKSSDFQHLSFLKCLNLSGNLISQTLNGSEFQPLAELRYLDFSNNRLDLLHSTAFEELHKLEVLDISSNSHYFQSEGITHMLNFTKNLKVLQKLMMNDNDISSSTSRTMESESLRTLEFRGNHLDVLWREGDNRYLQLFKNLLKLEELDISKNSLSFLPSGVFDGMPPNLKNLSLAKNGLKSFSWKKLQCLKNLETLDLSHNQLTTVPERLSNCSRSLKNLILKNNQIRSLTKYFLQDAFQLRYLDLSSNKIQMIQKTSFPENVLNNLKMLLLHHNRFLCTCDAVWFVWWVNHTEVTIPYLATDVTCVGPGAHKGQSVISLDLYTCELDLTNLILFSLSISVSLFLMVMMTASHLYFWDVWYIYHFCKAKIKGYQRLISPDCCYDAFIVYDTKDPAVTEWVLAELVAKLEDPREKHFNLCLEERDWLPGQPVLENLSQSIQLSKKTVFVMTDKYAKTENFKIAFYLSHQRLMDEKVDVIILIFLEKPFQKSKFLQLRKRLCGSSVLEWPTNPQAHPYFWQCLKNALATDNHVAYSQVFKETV

| SMILES | IC50 (human TLR7) [nM] | IC50 (human TLR9) [nM] | IC50 (human TLR8) [nM] |
| --- | --- | --- | --- |
| C[C@@H]1CN(c2ccc(C#N)c3ncccc23)C[C@@H]2CC(N3CCN(c4cc5c(cn4)CCNC5)CC3)CN21 (stereo in doubt) [Example 13, 5-[(4R,7R,8aS)-4-methyl-7-[4-(5,6,7,8-tetrahydro-2,6-naphthyridin-3-yl)piperazin-1-yl]-3,4,6,7,8,8a-hexahydro-1H-pyrrolo[1,2-a]pyrazin-2-yl]quinoline-8-carbonitrile] | 14.9 | 49 | 8.2 |
| C[C@@H]1CN(c2ccc(C#N)c3ncccc23)C[C@@H]2C[C@@H](Nc3ccc4c(n3)CCN(C)C4)CN21 [Example 4, 5-[(4R,7R,8aS)-4-methyl-7-[(6-methyl-7,8-dihydro-5H-1,6-naphthyridin-2-yl)amino]-3,4,6,7,8,8a-hexahydro-1H-pyrrolo[1,2-a]pyrazin-2-yl]quinoline-8-carbonitrile] | 21.7 | 147 | 6.3 |
| C[C@@H]1CN(c2ccc(C#N)c3ncccc23)C[C@@H]2C[C@@H](N(C)c3ccc4c(n3)CCNC4)CN21 [Example 5, 5-[(4R,7R,8aS)-4-methyl-7-[methyl(5,6,7,8-tetrahydro-1,6-naphthyridin-2-yl)amino]-3,4,6,7,8,8a-hexahydro-1H-pyrrolo[1,2-a]pyrazin-2-yl]quinoline-8-carbonitrile] | 16.9 | 78.1 | 2.9 |
| C[C@@H]1CN(c2ccc(C#N)c3ncccc23)C[C@@H]2C[C@@H](Nc3ncc4c(n3)CCNC4)CN21 [Example 6, 5-[(4R,7R,8aS)-4-methyl-7-(5,6,7,8-tetrahydropyrido[4,3-d]pyrimidin-2-ylamino)-3,4,6,7,8,8a-hexahydro-1H-pyrrolo[1,2-a]pyrazin-2-yl]quinoline-8-carbonitrile] | 18.8 | 157 | 12.9 |
| C[C@@H]1CN(c2ccc(C#N)c3ncccc23)C[C@@H]2C[C@H](N3CCc4cc(N5CCNCC5)ccc4C3)CN21 [Example 10, 5-[(4R,7S,8aS)-4-methyl-7-(6-piperazin-1-yl-3,4-dihydro-1H-isoquinolin-2-yl)-3,4,6,7,8,8a-hexahydro-1H-pyrrolo[1,2-a]pyrazin-2-yl]quinoline-8-carbonitrile] | 30.1 | 81.1 | 24.9 |
| CO[C@@H]1CN(c2ccc3c(n2)CCN([C@H]2C[C@H]4CN(c5ccc(C#N)c6ncccc56)C[C@@H](C)N4C2)C3)C[C@H]1N [Example 11, 5-[(4R,7S,8aS)-7-[2-[(3R,4R)-3-amino-4-methoxy-pyrrolidin-1-yl]-7,8-dihydro-5H-1,6-naphthyridin-6-yl]-4-methyl-3,4,6,7,8,8a-hexahydro-1H-pyrrolo[1,2-a]pyrazin-2-yl]quinoline-8-carbonitrile] | 23.4 | 59.2 | 8.5 |
| CO[C@@H]1CN(c2cc3c(cn2)CCN([C@H]2C[C@H]4CN(c5ccc(C#N)c6ncccc56)C[C@@H](C)N4C2)C3)C[C@H]1N [Example 12, 5-[(4R,7S,8aS)-7-[7-[(3R,4R)-3-amino-4-methoxy-pyrrolidin-1-yl]-3,4-dihydro-1H-2,6-naphthyridin-2-yl]-4-methyl-3,4,6,7,8,8a-hexahydro-1H-pyrrolo[1,2-a]pyrazin-2-yl]quinoline-8-carbonitrile] | 45.1 | 108 | 17.2 |
| C[C@@H]1CN(c2ccc(C#N)c3ncccc23)C[C@@H]2CC(Oc3ccc4c(n3)CCNC4)CN21 (stereo partly drawn) [Example 14, 5-[(4R,8aS)-4-methyl-7-(5,6,7,8-tetrahydro-1,6-naphthyridin-2-yloxy)-3,4,6,7,8,8a-hexahydro-1H-pyrrolo[1,2-a]pyrazin-2-yl]quinoline-8-carbonitrile] | 16.2 | 247 | 4 |

Results, then the compound that gave them:

| IC50 (human TLR7) [nM] | IC50 (human TLR9) [nM] | IC50 (human TLR8) [nM] | SMILES |
| --- | --- | --- | --- |
| 17.7 | 53.5 | 9 | C[C@@H]1CN(c2ccc(C#N)c3ncccc23)C[C@@H]2C[C@@H](Nc3ccc4c(n3)CN[C@@H]4C)CN21 [Example 7A, 5-[(4R,7R,8aS)-4-methyl-7-[[(5R)-5-methyl-6,7-dihydro-5H-pyrrolo[3,4-b]pyridin-2-yl]amino]-3,4,6,7,8,8a-hexahydro-1H-pyrrolo[1,2-a]pyrazin-2-yl]quinoline-8-carbonitrile] |
| 29.8 | 56.5 | 11.3 | C[C@@H]1NCc2nc(N[C@@H]3C[C@H]4CN(c5ccc(C#N)c6ncccc56)C[C@@H](C)N4C3)ccc21 [Example 7B, 5-[(4R,7R,8aS)-4-methyl-7-[[(5S)-5-methyl-6,7-dihydro-5H-pyrrolo[3,4-b]pyridin-2-yl]amino]-3,4,6,7,8,8a-hexahydro-1H-pyrrolo[1,2-a]pyrazin-2-yl]quinoline-8-carbonitrile] |
| 11.1 | 63.1 | 3.6 | C[C@@H]1CN(c2ccc(C#N)c3ncccc23)C[C@@H]2C[C@@H](Nc3ccc4c(n3)C[C@H](C)NC4)CN21 [Example 8A, 5-[(4R,7R,8aS)-4-methyl-7-[[(7S)-7-methyl-5,6,7,8-tetrahydro-1,6-naphthyridin-2-yl]amino]-3,4,6,7,8,8a-hexahydro-1H-pyrrolo[1,2-a]pyrazin-2-yl]quinoline-8-carbonitrile] |
| 14.7 | 89.4 | 7.5 | C[C@@H]1Cc2nc(N[C@@H]3C[C@H]4CN(c5ccc(C#N)c6ncccc56)C[C@@H](C)N4C3)ccc2CN1 [Example 8B, 5-[(4R,7R,8aS)-4-methyl-7-[[(7R)-7-methyl-5,6,7,8-tetrahydro-1,6-naphthyridin-2-yl]amino]-3,4,6,7,8,8a-hexahydro-1H-pyrrolo[1,2-a]pyrazin-2-yl]quinoline-8-carbonitrile] |
